This experiment has as its target VLA-4-IgG chimera protein (Homo sapiens, UniProt P05556+P13612). In words: Inhibitory effect against binding between CS-1 peptide and VLA-4-IgG chimera protein. The settings on record: binding of VLA-4-IgG chimera protein to immobilized CS-1 peptide conjugate; compound pre-reacted with chimera protein 20 min; 30° C. 3 hours; absorbance 490 nm. On the procedure: The inhibitory activity of the compound according to the present invention against the adhesion of VLA-4 may be determined by using an adhesion-measuring system in which the adhesion between VLA-4-expressing cells such as Ramos cells or Jurkat cells and fibronectin or fibronectin fragment such as a peptide containing CS-1 sequence (Gly Pro Glu Ile Leu Asp Val Pro Ser Thr) (hereinafter referred to as “CS-1 peptide”), immobilized on an immunoplate is measured. Alternatively, a binding-measuring system in which the adhesion between VLA-4 protein and fibronectin or fibronectin fragment such as CS-1 peptide, immobilized on an immunoplate may be used. In the present invention, it is preferred to evaluate the inhibitory activity of a compound using a binding-measuring system in which adhesion between a chimera protein of VLA-4-immunoglobulin (VLA-4-IgG chimera protein) and CS-1 peptide (Japanese Patent Application No. H9-234544), but the method is not restricted thereto. The “VLA-4-IgG chimera protein” herein means the heterodimer complex of the chimera protein between α4 of VLA-4 and immunoglobulin (hereinafter referred to as “VLAα4-IgG chimera protein”) and a chimera protein between β1 of VLA-4 and immunoglobulin (hereinafter referred to as “VLAβ1-IgG chimera protein”). As the immunoglobulin, although heavy chain or light chain of IgG, IgM or the like may be used, IgG1 heavy chain is used in the present invention. When testing the inhibitory effect of a compound, it is preferred to mix VLA-4-IgG chimera protein and the test compound previously.
In accordance with the teaching of a report (Humphrise, M. J. et al. J.Bio.Chem.,262,6886-6892(1987)), a conjugate between a peptide (Gys Leu His Gly Pro Glu Glu Ile Leu Asp Val Pro Ser Thr) containing CS-1 sequence and rabbit IgG (Sigma) was prepared. This was diluted with phosphate buffer (hereinafter referred to as “PBS(−)” for short), and the obtained solution was placed in the wells of a 96-well immunoplate (NUNC) in an amount of 100 μl/well, followed by leaving to stand the immunoplate at 4° C. for 16 hours to immobilize the conjugate.
The wells were then washed twice with PBS(−), and 1% BSA solution in PBS, which BSA was heated at 80° C. for 10 minutes, was placed in each well in an amount of 300 μl/well. The immunoplate was left to stand at 4° C. for 3 hours, and then the solution in each well was removed by suction.
Each compound and VLA-4-IgG chimera protein (100 μl) were preliminarily reacted at room temperature for 20 minutes, and then the resulting mixture was allowed to react with the CS-1peptide in each well at 30° C. for 3 hours. Thereafter, non-bound VLA-4-IgG chimera protein was removed by suction, and each well was washed twice with 0.1% BSA-containing TBS buffer (150 mM NaCl, 25 mM Tris-HCl, 1 mM MnCl2, PH7.4). To the bound VLA-4-IgG chimera protein, biotin-labelled anti-human IgG antibody (Vector) as a primary antibody was added, and then avidin-labelled horse radish peroxidase (Sigma) as a secondary antibody was added, thereby allowing the reactions. Then o-phenylenediamine as a substrate was added to color the reaction solution, and the absorbance at 490 nm was measured. From this absorbance, the binding inhibitory activity of each compound was determined.
VLA-4-IgG chimera protein, sequence (P13612 with tags, fused parts or gaps limits assumed): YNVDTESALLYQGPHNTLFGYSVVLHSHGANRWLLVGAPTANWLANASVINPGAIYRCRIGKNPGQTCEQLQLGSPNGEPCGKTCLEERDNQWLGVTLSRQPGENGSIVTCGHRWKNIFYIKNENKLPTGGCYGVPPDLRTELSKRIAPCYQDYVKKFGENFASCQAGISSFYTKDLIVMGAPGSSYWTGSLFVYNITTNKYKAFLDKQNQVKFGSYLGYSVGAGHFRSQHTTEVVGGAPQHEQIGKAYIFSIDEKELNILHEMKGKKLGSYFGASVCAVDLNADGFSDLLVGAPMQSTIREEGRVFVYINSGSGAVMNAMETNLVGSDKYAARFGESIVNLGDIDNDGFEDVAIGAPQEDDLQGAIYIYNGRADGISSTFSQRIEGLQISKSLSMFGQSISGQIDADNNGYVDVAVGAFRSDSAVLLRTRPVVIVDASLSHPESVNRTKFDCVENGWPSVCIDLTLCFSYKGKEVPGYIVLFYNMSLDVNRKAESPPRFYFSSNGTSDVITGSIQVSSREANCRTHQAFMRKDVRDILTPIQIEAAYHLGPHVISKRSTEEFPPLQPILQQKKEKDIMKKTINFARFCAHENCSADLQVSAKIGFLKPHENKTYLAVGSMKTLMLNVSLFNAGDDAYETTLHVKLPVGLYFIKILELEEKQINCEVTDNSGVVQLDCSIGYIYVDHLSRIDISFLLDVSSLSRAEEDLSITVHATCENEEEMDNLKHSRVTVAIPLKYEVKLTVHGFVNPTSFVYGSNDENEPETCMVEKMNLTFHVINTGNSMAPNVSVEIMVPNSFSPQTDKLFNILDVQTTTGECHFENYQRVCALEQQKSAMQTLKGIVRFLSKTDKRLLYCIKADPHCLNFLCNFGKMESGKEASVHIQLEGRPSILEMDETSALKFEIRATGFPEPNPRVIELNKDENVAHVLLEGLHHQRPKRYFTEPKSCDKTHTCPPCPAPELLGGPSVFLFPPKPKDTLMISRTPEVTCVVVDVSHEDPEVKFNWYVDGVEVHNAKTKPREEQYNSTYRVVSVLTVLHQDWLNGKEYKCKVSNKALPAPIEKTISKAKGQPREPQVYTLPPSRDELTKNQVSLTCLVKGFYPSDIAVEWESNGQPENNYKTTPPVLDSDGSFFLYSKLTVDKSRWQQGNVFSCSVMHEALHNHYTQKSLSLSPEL
VLA-4-IgG chimera protein, sequence (P05556 with tags, fused parts or gaps limits assumed): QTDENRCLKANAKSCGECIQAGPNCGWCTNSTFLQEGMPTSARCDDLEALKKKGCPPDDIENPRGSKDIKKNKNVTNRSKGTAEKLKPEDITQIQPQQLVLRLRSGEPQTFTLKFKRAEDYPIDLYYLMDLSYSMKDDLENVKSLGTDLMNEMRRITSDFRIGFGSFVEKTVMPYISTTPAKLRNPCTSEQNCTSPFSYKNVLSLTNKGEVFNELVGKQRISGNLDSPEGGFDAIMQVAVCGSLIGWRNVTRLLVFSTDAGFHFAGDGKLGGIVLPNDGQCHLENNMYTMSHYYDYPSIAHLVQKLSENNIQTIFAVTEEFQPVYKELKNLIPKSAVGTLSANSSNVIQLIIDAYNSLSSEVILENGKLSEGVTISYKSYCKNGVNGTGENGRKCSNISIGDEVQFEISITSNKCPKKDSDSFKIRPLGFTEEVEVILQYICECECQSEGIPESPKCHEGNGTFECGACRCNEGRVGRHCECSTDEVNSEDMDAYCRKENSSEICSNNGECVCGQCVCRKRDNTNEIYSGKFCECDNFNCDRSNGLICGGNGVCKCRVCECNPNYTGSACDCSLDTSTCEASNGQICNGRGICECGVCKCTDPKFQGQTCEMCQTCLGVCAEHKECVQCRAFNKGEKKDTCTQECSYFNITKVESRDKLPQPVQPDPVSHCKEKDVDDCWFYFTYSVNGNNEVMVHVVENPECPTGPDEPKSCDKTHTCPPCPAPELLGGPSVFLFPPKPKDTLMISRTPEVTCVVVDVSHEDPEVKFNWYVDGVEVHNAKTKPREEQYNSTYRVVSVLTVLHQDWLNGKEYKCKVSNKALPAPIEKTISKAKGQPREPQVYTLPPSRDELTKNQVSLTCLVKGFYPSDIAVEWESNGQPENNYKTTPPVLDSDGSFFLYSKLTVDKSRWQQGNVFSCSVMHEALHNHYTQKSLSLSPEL
Regarding `O=C(N[C@@H](CNC(=O)N1CCC2(CC1)C(=O)NCN2c1ccccc1)C(=O)O)c1c(Cl)cccc1Cl` [Compound 3, 3-((2,4,8-triaza-1-oxo-4-phenylspiro[4.5]dec-8-yl)carbonylamino)-2-((2,6-dichlorophenyl)carbonylamino)propanoic acid], the IC50 is 6.1 nM. In other words, the single-digit nanomolar range.

As to `COc1cccc(OC)c1C(=O)N[C@@H](CNC(=O)N1CCC2(CC1)C(=O)N(Cc1ccccc1)CN2c1ccccc1)C(=O)O` [Compound 7, 2-((2,6-dimethoxyphenyl)carbonylamino)-3-((2,4,8-triaza-1-oxo-4-phenyl-2-benzylspiro[4.5]dec-8-yl)carbonylamino)propanoic acid], the IC50 stood at 18 nM.

On to `Cc1cccc(C)c1C(=O)N[C@@H](CNC(=O)N1CCC2(CC1)C(=O)N(Cc1ccccc1)CN2c1ccccc1)C(=O)O` [Compound 13, 2-((2,6-dimethylphenyl)carbonylamino)-3-((2,4,8-triaza-1-oxo-4-phenyl-2-benzylspiro[4.5]dec-8-yl)carbonylamino)propanoic acid], for which the half-inhibitory concentration (IC50) amounted to 2.9 nM.

The compound `CC(C)C(=O)NC1(c2ccccc2)CCN(C(=O)N[C@@H](CNC(=O)N2CCC3(CC2)C(=O)N(Cc2ccccc2)CN3c2ccccc2)C(=O)O)CC1` [Compound 27] showed a 50% inhibitory concentration (IC50) of 2.1 nM.

The compound `O=C(O)[C@H](CNC(=O)N1CCC2(CC1)C(=O)N(Cc1ccccc1)CN2c1ccccc1)NC(=O)N1CCC(n2c(=O)[nH]c3ccccc32)CC1` [Compound 31, 2-((4-(2-oxo(3-hydrobenzimidazolyl))piperidyl)carbonylamino)-3-((2,4,8-triaza-1-oxo-4-phenyl-2-benzylspiro[4.5]dec-8-yl)carbonylamino)propanoic acid] yielded an IC50 of 0.98 nM.

As a reminder, the IC50 is the midpoint of a concentration-inhibition curve.

(Values after patent US6919349B2, “Spiro compounds and adhesion molecule inhibitors containing the same as the active ingredient” (Toray Industries, Inc., priority 2000, dated 2005).)
